Data as given in US8901307B2, “Chemical compounds 251” (AstraZeneca AB, priority 2008, dated 2014).
Counter-ions that a name gives are not always drawn. Like-named read-outs stand apart in the source and are kept apart here.

Experiments:
[1] = biological target: T1, human His-PIM1 [2-313] (Homo sapiens, UniProt P11309); assay: PIM1 in-vitro mobility shift assay (Caliper LC3000, FL-Ahx-Bad phosphorylation); assay type: biochemical; details: 1.5 h, read-out: PIM1 % I at 0.3 uM
T1 construct: purified human His-PIM1 [2-313] enzyme; His (N); purchased University of Dundee, Scotland; host or cells: baculovirus system
Outline: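 Compound preincubated 20 min at 25 °C with 2.4 nM PIM1, 3.6 µM FL-Ahx-Bad peptide and 240 µM ATP (1.2× mix concentrations). Reaction started with 24 mM MgCl2 mix, run 90 min at 25 °C, EDTA-stopped. Phospho/unphospho peptide separated by microfluidic mobility shift; percent inhibition from ratiometric turnover.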

[2] = biological target: T2, human His-PIM2 [23-299] (Homo sapiens, UniProt Q9P1W9); assay: PIM2 in-vitro mobility shift assay (Caliper LC3000, FL-Ahx-Bad phosphorylation); assay type: biochemical; details: 1.5 h; percent inhibition at 0.3 uM compound; read-out: PIM2 % I at 0.3 uM
T2 construct: purified human His-PIM2 [23-299] enzyme; His (N); host or cells: E. coli

[3] = percent inhibition at 0.3 uM compound

T2 sequence (Q9P1W9 23-299): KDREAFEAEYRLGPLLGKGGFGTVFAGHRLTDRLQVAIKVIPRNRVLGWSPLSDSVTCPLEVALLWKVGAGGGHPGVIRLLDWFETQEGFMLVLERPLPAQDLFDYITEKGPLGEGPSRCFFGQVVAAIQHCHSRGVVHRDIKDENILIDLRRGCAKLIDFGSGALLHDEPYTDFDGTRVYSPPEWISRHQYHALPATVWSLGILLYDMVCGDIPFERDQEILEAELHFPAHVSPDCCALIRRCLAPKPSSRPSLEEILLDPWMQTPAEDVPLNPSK
T1 sequence (P11309 2-313): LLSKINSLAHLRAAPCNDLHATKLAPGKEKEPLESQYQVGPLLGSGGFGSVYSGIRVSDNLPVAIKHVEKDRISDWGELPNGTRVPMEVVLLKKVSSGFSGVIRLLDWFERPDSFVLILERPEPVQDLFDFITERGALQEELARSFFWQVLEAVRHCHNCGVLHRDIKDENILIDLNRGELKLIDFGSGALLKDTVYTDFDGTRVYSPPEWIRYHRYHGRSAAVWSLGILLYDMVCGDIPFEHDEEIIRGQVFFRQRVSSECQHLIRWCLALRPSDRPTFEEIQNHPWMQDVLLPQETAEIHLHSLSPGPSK

Structure (SMILES) | inhibition at 0.3 µM [1, 3] [%] | inhibition at 0.3 µM [2] [%] | inhibition at 0.3 µM [1] [%]
NC[C@@H]1CCN(c2c(Cl)cccc2/C=C2\SC(=O)NC2=O)C1 [Example 122C, (S,Z)-5-(2-(3-(aminomethyl)pyrrolidin-1-yl)-3-chlorobenzylidene)thiazolidine-2,4-dione] | > 95 | > 95 | 
N[C@@H]1CCCN(c2c(Cl)cccc2/C=C2\SC(=O)NC2=O)C1 [Example 122D, (R,Z)-5-(2-(3-aminopiperidin-1-yl)-3-chlorobenzylidene)thiazolidin-2,4-dione hydrochloride] | > 95 | > 95 | 
COc1cccc(/C=C2\SC(=O)NC2=O)c1N1CCC[C@@H](N)C1 [Example 122E, (R,Z)-5-(2-(3-aminopiperidin-1-yl)-3-methoxybenzylidene)thiazolidine-2,4-dione hydrochloride] | > 95 | > 95 | 
N[C@@H]1CCCN(c2c(Br)cccc2/C=C2\SC(=O)NC2=O)C1 [Example 122F, (R,Z)-5-(2-(3-aminopiperidin-1-yl)-3-bromobenzylidene)thiazolidine-2,4-dione hydrochloride] |  | > 95 | > 95
N[C@@H]1CCN(c2c(Cl)cccc2/C=C2\SC(=O)NC2=O)C1 [Example 122G, (R,Z)-5-(2-(3-aminopyrrolidin-1-yl)-3-chlorobenzylidene)thiazolidin-2,4-dione hydrochloride] | > 95 | 92.1 | 
N[C@H]1CCN(c2c(Br)cccc2/C=C2\SC(=O)NC2=O)C1 [Example 122H, (S,Z)-5-(2-(3-aminopyrrolidin-1-yl)-3-bromobenzylidene)thiazolidine-2,4-dione hydrochloride] | > 95 | > 95 | 
CCOc1cccc(/C=C2\SC(=O)NC2=O)c1N1CCC[C@@H](N)C1 [Example 122I, (R,Z)-5-(2-(3-aminopiperidin-1-yl)-3-ethoxybenzylidene)thiazolidine-2,4-dione hydrochloride] | > 95 | > 95 | 
N[C@@H]1CCCN(c2c(/C=C3\SC(=O)NC3=O)cccc2OCC2CCCCC2)C1 [Example 122K, (R,Z)-5-(2-(3-aminopiperidin-1-yl)-3-(cyclohexylmethoxy)benzylidene)thiazolidine-2,4-dione hydrochloride] | > 95 | > 95 | 
N[C@@H]1CCCN(c2c(/C=C3\SC(=O)NC3=O)cccc2OC2CCCCC2)C1 [Example 122L, hydrochloride] | > 95 | > 95 | 
O=C1NC(=O)/C(=C/c2cccc(Cl)c2N2CCCNCC2)S1 [Example 122N, (Z)-5-(3-chloro-2-(1,4-diazepan-1-yl)benzylidene)thiazolidine-2,4-dione hydrochloride] | > 95 | > 95 | 
CC(C)Oc1cccc(/C=C2\SC(=O)NC2=O)c1N1CCC[C@@H](N)C1 [Example 122O, (R,Z)-5-(2-(3-aminopiperidin-1-yl)-3-isopropoxybenzylidene)thiazolidine-2,4-dione hydrochloride] | > 95 | > 95 | 
CC(C)Oc1cccc(/C=C2\SC(=O)NC2=O)c1N1CC[C@H](N)C1 [Example 122P, (S,Z)-5-(2-(3-aminopyrrolidin-1-yl)-3-isopropoxybenzylidene)thiazolidine-2,4-dione hydrochloride] | > 95 | > 95 | 
CCOc1cccc(/C=C2\SC(=O)NC2=O)c1N1CC[C@H](N)C1 [Example 122Q, (S,Z)-5-(2-(3-aminopyrrolidin-1-yl)-3-ethoxybenzylidene)thiazolidine-2,4-dione hydrochloride] | > 95 | > 95 | 
NCc1ccc(CN[C@@H]2CCCN(c3c(Cl)cccc3/C=C3\SC(=O)NC3=O)C2)cc1 [Example 122R, (R,Z)-5-(2-(3-(4-(aminomethyl)benzylamino)piperidin-1-yl)-3-chlorobenzylidene)thiazolidine-2,4-dione hydrochloride] | > 95 | 89.6 | 
CNCCN[C@@H]1CCCN(c2c(Cl)cccc2/C=C2\SC(=O)NC2=O)C1 [Example 122S, (R,Z)-5-(3-chloro-2-(3-(2-(methylamino)ethylamino)piperidin-1-yl)benzylidene)thiazolidine-2,4-dione hydrochloride] | > 95 | > 95 | 
N[C@H]1CN(c2c(Cl)cccc2/C=C2\SC(=O)NC2=O)C[C@@H]1O [Example 122T, (Z)-5-(2-((3S,4S)-3-amino-4-hydroxypyrrolidin-1-yl)-3-chlorobenzylidene)thiazolidine-2,4-dione hydrochloride] | > 95 | > 95 | 
CNC1CN(c2c(Cl)cccc2/C=C2\SC(=O)NC2=O)CCC1C (stereo not drawn) [Example 122U, (Z)-5-(3-chloro-2-(4-methyl-3-(methylamino)piperidin-1-yl)benzylidene)thiazolidine-2,4-dione hydrochloride] | > 95 | > 95 | 
CC1CCN(c2c(Cl)cccc2/C=C2\SC(=O)NC2=O)CC1N (stereo not drawn) [Example 122V, (Z)-5-(2-(3-amino-4-mnethylpiperidin-1-yl)-3-chlorobenzylidene)thiazolidine-2,4-dione hydrochloride] | > 95 | > 95 | 
